Experimental data reported in ChEMBL document CHEMBL1201862, “PubChem BioAssay data set” (2004).
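Method: 48-hour compound exposure of cells in 96-well plates, five concentrations, linear interpolation of endpoints. GI50 marks 50% less growth.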 The source made the active and inactive calls. Cut-off read from the data, not from the text of the source: active = GI50 up to about 1.1 µM and inactive = higher.

Assays:
Assay in all cases: inhibition of tumour cell growth, NCI panel, 48 h
K562 = tested on: K562
SNB-75 = tested on: SNB-75
SF-268 = tested on: SF-268
786-0 = tested on: 786-0
M19-MEL = tested on: M19-MEL
DMS-273 = tested on: DMS-273
IGROV-1 = tested on: IGROV-1
HL-60 = tested on: HL-60
LOX IMVI = tested on: LOX IMVI
SK-MEL-2 = tested on: SK-MEL-2
NCI-H23 = tested on: NCI-H23
XF498 = tested on: XF498
OVCAR-5 = tested on: OVCAR-5
U-251 = tested on: U-251
CCRF-CEM = tested on: CCRF-CEM
RPMI-8226 = tested on: RPMI-8226
NCI-H460 = tested on: NCI-H460
A549 = tested on: A549
SW-620 = tested on: SW-620
SNB-19 = tested on: SNB-19
DMS-114 = tested on: DMS-114
SR = tested on: SR
MOLT-4 = tested on: MOLT-4
OVCAR-8 = tested on: OVCAR-8
COLO 205 = tested on: COLO 205
RXF 393 = tested on: RXF 393
SK-OV-3 = tested on: SK-OV-3
LXFL 529 = tested on: LXFL 529
OVCAR-3 = tested on: OVCAR-3
HOP-62 = tested on: HOP-62
NCI-H522 = tested on: NCI-H522
DLD-1 = tested on: DLD-1
HOP-92 = tested on: HOP-92
KM-20L2 = tested on: KM-20L2
SK-MEL-5 = tested on: SK-MEL-5
UO-31 = tested on: UO-31
MDA-MB-231 = tested on: MDA-MB-231
UACC-62 = tested on: UACC-62
HCC 2998 = tested on: HCC 2998
SN12C = tested on: SN12C
OVCAR-4 = tested on: OVCAR-4
DU-145 = tested on: DU-145
SK-MEL-28 = tested on: SK-MEL-28
MDA-N = tested on: MDA-N
T47D = tested on: T47D
UACC-257 = tested on: UACC-257
NCI-H226 = tested on: NCI-H226
HCT-15 = tested on: HCT-15
HCT-116 = tested on: HCT-116
EKVX = tested on: EKVX
Hs-578T = tested on: Hs-578T
MCF7 = tested on: MCF7
KM12 = tested on: KM12
TK-10 = tested on: TK-10
ACHN = tested on: ACHN
SNB-78 = tested on: SNB-78
HT-29 = tested on: HT-29
PC-3 = tested on: PC-3
NCI/ADR-RES = tested on: NCI/ADR-RES
A498 = tested on: A498
SF-539 = tested on: SF-539
BT-549 = tested on: BT-549
M14 = tested on: M14
MDA-MB-435 = tested on: MDA-MB-435
SF-295 = tested on: SF-295
CAKI-1 = tested on: CAKI-1
Malme-3M = tested on: Malme-3M

COc1cc(CNc2ccc(C)cc2)cc(OC)c1OC
GI50 (K562): 82.6 nM (active) | GI50 (SNB-75): 316 nM (active) | GI50 (SF-268): 741 nM (active) | GI50 (786-0): 384 nM (active) | GI50 (M19-MEL): 330 nM (active) | GI50 (DMS-273): 103 nM (active) | GI50 (IGROV-1): 659 nM (active) | GI50 (HL-60): 76.4 nM (active) | GI50 (LOX IMVI): 621 nM (active) | GI50 (SK-MEL-2): 229 nM (active) | GI50 (NCI-H23): 361 nM (active) | GI50 (XF498): 962 nM (active) | GI50 (OVCAR-5): 1740 nM (inactive) | GI50 (U-251): 356 nM (active) | GI50 (CCRF-CEM): 252 nM (active) | GI50 (RPMI-8226): 467 nM (active) | GI50 (NCI-H460): 252 nM (active) | GI50 (A549): 500 nM (active) | GI50 (SW-620): 149 nM (active) | GI50 (SNB-19): 533 nM (active) | GI50 (DMS-114): 277 nM (active) | GI50 (SR): 138 nM (active) | GI50 (MOLT-4): 331 nM (active) | GI50 (OVCAR-8): 624 nM (active) | GI50 (COLO 205): 219 nM (active) | GI50 (RXF 393): 163 nM (active) | GI50 (SK-OV-3): 301 nM (active) | GI50 (LXFL 529): 635 nM (active) | GI50 (OVCAR-3): 213 nM (active) | GI50 (HOP-62): 386 nM (active) | GI50 (NCI-H522): 255 nM (active) | GI50 (DLD-1): 450 nM (active) | GI50 (HOP-92): 3340 nM (inactive) | GI50 (KM-20L2): 246 nM (active) | GI50 (SK-MEL-5): 472 nM (active) | GI50 (UO-31): 807 nM (active)

N=C1C=CC(=C(c2ccc(N)cc2)c2ccc(N)cc2)C=C1
GI50 (MDA-MB-231): 4660 nM (inactive) | GI50 (UACC-62): 3870 nM (inactive) | GI50 (K562): 2390 nM (inactive) | GI50 (HCC 2998): 4930 nM (inactive) | GI50 (SNB-75): 519 nM (active) | GI50 (SF-268): 542 nM (active) | GI50 (SN12C): 444 nM (active) | GI50 (786-0): 2360 nM (inactive) | GI50 (M19-MEL): 4130 nM (inactive) | GI50 (OVCAR-4): 9930 nM (inactive) | GI50 (DU-145): 5710 nM (inactive) | GI50 (SK-MEL-28): 8130 nM (inactive) | GI50 (MDA-N): 4840 nM (inactive) | GI50 (IGROV-1): 9860 nM (inactive) | GI50 (T47D): 968 nM (active) | GI50 (UACC-257): 4590 nM (inactive) | GI50 (HL-60): 3850 nM (inactive) | GI50 (NCI-H226): 3680 nM (inactive) | GI50 (HCT-15): 12800 nM | GI50 (LOX IMVI): 3910 nM (inactive) | GI50 (SK-MEL-2): 2900 nM (inactive) | GI50 (HCT-116): 3870 nM (inactive) | GI50 (NCI-H23): 3630 nM (inactive) | GI50 (EKVX): 5580 nM (inactive) | GI50 (Hs-578T): 510 nM (active) | GI50 (XF498): 2380 nM (inactive) | GI50 (OVCAR-5): 9270 nM (inactive) | GI50 (MCF7): 3110 nM (inactive) | GI50 (U-251): 406 nM (active) | GI50 (CCRF-CEM): 3150 nM (inactive) | GI50 (KM12): 3010 nM (inactive) | GI50 (TK-10): 10200 nM (inactive) | GI50 (RPMI-8226): 2290 nM (inactive) | GI50 (ACHN): 8170 nM (inactive) | GI50 (NCI-H460): 3610 nM (inactive) | GI50 (A549): 3730 nM (inactive) | GI50 (SW-620): 3680 nM (inactive) | GI50 (SNB-78): 4140 nM (inactive) | GI50 (HT-29): 3770 nM (inactive) | GI50 (SNB-19): 532 nM (active) | GI50 (DMS-114): 2180 nM (inactive) | GI50 (PC-3): 3120 nM (inactive) | GI50 (NCI/ADR-RES): 16200 nM (inactive) | GI50 (A498): 6970 nM (inactive) | GI50 (SR): 11100 nM (inactive) | GI50 (MOLT-4): 3730 nM (inactive) | GI50 (OVCAR-8): 1910 nM (inactive) | GI50 (COLO 205): 1640 nM (inactive) | GI50 (SF-539): 2020 nM (inactive) | GI50 (RXF 393): 6500 nM (inactive) | GI50 (SK-OV-3): 13100 nM (inactive) | GI50 (LXFL 529): 1570 nM (inactive) | GI50 (OVCAR-3): 10000 nM (inactive) | GI50 (BT-549): 982 nM (active) | GI50 (M14): 4050 nM (inactive) | GI50 (MDA-MB-435): 4180 nM (inactive) | GI50 (HOP-62): 3300 nM (inactive) | GI50 (SF-295): 3990 nM (inactive) | GI50 (NCI-H522): 2640 nM (inactive) | GI50 (CAKI-1): 19100 nM (inactive) | GI50 (Malme-3M): 3180 nM (inactive) | GI50 (DLD-1): 5120 nM (inactive) | GI50 (HOP-92): 3220 nM (inactive) | GI50 (KM-20L2): 4300 nM (inactive) | GI50 (SK-MEL-5): 1090 nM (active) | GI50 (UO-31): 12500 nM (inactive)
